According to ChEMBL document CHEMBL1201862, “PubChem BioAssay data set” (2004):
The source made the active and inactive calls.

Legend:
BJ [1] = experiment: cytotoxicity toward BJ-TERT-LT-ST fibroblasts, dose response, cell-based, RAS-independent, luminescence (AID 1935); assay type: functional; settings: Homo sapiens;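 further: BJ fibroblasts immortalized with TERT plus LT and ST oncogenes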
[2] = cytotoxicity toward DRD oncogenic fibroblasts, dose response, cell-based, non-viral oncogenic, luminescence (AID 1934); assay type: functional; settings: Homo sapiens
[3] = inhibitors of firefly luciferase expression or activity, dose response, H4 neuroglioma cells, luminescence (AID 1990); assay type: functional, cell-based
BJ [4] = experiment: cells; assay type: functional, cell-based; settings: Homo sapiens
[5] = inhibitors of SNCA 5'UTR-driven translation, confirmation, luminescence, H4 neuroglioblastoma cells, dose confirmation (AID 2454); assay type: functional, cell-based;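 further: H4 neuroglioblastoma cells carrying an alpha-synuclein 5'UTR luciferase reporter; potency for inhibition of the luciferase signal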
J774.A1 = experiment: Confirmation of image-based Screening Assay for Inhibitors of Phagocytosis. [Related pubchem assays (depositor defined):AID1029, AID1643]; assay type: functional, cell-based; settings: Mus musculus
[6] = inhibitors of SNCA 5'UTR-driven reporter translation, confirmation, H4 neuroglioma cells, luminescence (AID 1988); assay type: functional, cell-based
[7] = Luminescence Cell-Based Dose Response HTS to Identify Inhibitors of 5'UTR Stem-Loop Driven Prion Protein mRNA Translation in H4 Neuroglioblastoma Cells. [Related pubchem assays: 1827 (Project Summary), 1813 (Primary HTS)]; assay type: functional
BJ [8] = experiment: cytotoxicity toward BJ-TERT fibroblasts, dose response, cell-based, RAS-independent, luminescence (AID 1933); assay type: functional; settings: Homo sapiens
[9] = HEK293 cell cytotoxicity, dose response, cytotoxicity control, dry powder samples (AID 720567); assay type: functional, cell-based
cells = assay type: functional, cell-based
[10] = cytotoxicity in HEK-293T cells, dose response, cytotoxicity control for TCR NF-kB inhibitor project, luminescence, T-cell screen hits (AID 489026); assay type: functional, cell-based;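 further: cells exposed to compound about 14 hours before the viability readout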
[11] = luciferase reporter signal reduction – luminescence, H4-C neuroglioblastoma cells, dose response (AID 2458); assay type: functional, cell-based;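 further: H4 neuroglioblastoma cells stably carrying a luciferase reporter gene fusion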
[12] = molecular target: Heat shock cognate 71 kDa protein (Homo sapiens, UniProt P11142); experiment: In Vitro Hsc70 Dose Response Fluorescence Polarization Assay. [Related pubchem assays: 1072 ]
[13] = molecular target: T1, Zinc finger protein mex-5 (Caenorhabditis elegans, UniProt Q9XUB2); experiment: MEX-5/TCR-2 RNA interaction inhibitors, dose response, biochemical, C. elegans, fluorescence polarization (AID 1960)
T1 sequence (Q9XUB2 whole entry): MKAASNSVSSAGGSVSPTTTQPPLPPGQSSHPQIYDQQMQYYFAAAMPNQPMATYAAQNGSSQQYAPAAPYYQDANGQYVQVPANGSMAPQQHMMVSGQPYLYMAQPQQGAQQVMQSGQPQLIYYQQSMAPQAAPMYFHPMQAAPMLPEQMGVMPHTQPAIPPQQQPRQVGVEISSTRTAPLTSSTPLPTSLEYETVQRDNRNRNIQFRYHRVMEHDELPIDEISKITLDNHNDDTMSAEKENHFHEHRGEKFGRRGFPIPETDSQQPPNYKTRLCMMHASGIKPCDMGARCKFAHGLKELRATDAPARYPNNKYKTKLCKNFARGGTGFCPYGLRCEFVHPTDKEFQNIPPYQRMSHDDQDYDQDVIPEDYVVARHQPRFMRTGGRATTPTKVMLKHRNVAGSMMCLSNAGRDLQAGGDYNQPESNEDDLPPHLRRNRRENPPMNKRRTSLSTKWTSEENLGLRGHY

[14] = molecular target: Glyceraldehyde-3-phosphate dehydrogenase (Homo sapiens, UniProt P04406)
Chain of Glyceraldehyde-3-phosphate dehydrogenase (P04406 whole entry): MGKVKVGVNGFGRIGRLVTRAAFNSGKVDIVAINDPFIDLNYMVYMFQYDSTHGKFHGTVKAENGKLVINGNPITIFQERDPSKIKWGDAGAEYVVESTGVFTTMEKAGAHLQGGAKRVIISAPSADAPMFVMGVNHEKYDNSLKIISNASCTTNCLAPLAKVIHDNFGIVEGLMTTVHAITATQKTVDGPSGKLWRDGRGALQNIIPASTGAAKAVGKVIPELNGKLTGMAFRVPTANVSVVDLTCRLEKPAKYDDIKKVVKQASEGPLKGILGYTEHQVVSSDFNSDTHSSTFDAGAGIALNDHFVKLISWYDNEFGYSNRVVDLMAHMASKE

Genome polyprotein = Genome polyprotein (dengue virus type 2, UniProt P29990); experiment: Dengue-2 NS5 methyltransferase inhibitors, primary screen, biochemical, confirmation dose response (AID 588689); assay type: functional
Chain of Genome polyprotein (P29990 2492-3391 limits assumed): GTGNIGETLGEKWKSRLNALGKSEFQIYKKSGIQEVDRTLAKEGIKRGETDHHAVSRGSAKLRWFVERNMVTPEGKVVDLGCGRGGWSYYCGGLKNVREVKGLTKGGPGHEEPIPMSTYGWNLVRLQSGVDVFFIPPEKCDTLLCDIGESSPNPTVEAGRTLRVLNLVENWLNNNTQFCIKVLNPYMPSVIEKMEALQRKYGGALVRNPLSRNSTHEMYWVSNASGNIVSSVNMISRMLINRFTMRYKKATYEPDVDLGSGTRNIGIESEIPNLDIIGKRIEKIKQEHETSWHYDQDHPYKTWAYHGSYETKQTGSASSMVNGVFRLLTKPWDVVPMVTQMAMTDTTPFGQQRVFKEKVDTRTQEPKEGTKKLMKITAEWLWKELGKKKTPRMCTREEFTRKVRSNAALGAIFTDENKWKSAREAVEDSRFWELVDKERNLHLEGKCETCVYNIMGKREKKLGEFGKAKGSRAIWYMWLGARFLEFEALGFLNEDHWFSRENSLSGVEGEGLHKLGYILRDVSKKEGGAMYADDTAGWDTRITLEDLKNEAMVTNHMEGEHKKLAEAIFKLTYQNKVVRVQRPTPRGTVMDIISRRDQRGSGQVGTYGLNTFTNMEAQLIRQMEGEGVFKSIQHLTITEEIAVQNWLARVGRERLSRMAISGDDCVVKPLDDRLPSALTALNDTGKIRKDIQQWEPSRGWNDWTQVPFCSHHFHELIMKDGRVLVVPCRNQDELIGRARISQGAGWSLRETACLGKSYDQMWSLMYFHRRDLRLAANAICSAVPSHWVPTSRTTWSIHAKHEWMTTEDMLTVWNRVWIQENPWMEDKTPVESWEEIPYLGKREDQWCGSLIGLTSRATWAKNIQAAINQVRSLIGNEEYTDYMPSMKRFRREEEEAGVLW

[15] = molecular target: Heat shock 70 kDa protein 1A (Homo sapiens, UniProt P0DMV8); experiment: Hsp70 inhibitors, SAR follow-up, biochemical, fluorescence polarization (AID 1072)
Chain of Heat shock 70 kDa protein 1A (P0DMV8 whole entry, the tested form may be a part): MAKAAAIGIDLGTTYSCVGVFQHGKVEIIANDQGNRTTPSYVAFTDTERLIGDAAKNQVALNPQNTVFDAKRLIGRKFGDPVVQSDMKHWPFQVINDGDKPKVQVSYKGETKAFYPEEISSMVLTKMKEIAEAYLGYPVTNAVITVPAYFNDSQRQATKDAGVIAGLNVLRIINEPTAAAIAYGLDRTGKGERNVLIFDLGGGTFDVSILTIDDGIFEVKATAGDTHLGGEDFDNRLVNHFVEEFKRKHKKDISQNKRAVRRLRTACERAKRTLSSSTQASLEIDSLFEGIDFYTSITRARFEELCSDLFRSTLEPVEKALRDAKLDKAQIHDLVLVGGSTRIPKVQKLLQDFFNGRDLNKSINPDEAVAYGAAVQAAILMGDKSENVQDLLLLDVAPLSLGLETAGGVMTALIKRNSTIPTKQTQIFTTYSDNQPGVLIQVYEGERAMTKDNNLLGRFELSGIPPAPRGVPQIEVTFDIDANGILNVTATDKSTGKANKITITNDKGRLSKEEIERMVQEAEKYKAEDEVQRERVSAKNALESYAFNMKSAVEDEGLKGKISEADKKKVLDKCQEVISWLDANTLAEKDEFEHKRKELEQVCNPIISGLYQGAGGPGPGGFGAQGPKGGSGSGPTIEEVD

[16] = molecular target: T2, RNA-binding protein pos-1 (Caenorhabditis elegans, UniProt G5EF15); experiment: inhibitors of POS-1/mex-3 RNA binding, dose response, biochemical, fluorescence polarization (AID 1964);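 further: purified POS-1 fused to maltose binding protein made in E. coli; potency of compounds blocking POS-1 binding to fluorescent RNA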
T2 sequence (G5EF15 whole entry): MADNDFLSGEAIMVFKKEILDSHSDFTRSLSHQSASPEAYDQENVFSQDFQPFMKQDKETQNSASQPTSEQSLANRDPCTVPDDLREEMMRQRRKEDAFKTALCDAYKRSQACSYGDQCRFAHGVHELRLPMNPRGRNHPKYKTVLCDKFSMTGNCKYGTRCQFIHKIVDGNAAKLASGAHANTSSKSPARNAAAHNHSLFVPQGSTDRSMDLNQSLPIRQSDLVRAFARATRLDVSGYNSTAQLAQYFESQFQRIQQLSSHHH

ORF 73 = ORF 73 (Human herpesvirus 8, UniProt O40947); experiment: inhibitors of C-LANA binding to LBS DNA, dose response, biochemical, fluorescence polarization, cherry-picked samples (AID 504725); parameters: species or system Human gammaherpesvirus 8;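 further: fluorescence polarization of a labeled DNA duplex reporting LANA DNA binding; potency is for inhibitors that block LANA binding to the DNA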
Chain of ORF 73 (O40947 whole entry): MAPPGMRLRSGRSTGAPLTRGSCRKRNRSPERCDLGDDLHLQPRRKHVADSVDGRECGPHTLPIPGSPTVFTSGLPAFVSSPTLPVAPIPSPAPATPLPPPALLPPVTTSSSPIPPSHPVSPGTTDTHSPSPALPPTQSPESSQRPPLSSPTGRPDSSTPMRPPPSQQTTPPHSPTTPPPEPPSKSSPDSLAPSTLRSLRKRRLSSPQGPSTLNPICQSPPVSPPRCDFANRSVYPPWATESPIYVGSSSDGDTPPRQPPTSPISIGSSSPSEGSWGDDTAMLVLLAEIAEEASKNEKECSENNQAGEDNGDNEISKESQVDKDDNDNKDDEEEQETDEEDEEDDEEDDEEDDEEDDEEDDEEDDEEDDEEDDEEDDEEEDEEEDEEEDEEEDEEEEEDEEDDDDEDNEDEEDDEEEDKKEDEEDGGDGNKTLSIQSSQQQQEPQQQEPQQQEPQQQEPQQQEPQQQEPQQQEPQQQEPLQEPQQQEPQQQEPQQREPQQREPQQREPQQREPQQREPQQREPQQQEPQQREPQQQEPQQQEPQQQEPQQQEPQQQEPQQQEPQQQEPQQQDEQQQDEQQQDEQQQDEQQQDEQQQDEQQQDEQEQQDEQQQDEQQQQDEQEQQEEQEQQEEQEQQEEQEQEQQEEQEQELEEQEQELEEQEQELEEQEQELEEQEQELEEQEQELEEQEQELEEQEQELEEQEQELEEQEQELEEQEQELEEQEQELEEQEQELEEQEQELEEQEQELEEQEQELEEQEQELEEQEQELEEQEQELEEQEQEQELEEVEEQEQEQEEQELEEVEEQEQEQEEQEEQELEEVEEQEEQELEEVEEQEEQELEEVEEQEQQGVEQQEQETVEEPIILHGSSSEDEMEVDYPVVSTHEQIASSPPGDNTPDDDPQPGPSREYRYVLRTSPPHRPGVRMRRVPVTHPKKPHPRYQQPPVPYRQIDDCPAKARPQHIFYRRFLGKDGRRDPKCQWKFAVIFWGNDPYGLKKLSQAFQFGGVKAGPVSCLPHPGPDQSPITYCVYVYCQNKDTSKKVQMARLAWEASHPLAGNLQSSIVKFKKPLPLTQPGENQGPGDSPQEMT

[17] = molecular target: T3, Polyadenylate-binding protein 1 (Homo sapiens, UniProt P11940); experiment: PABP1 MLLE–PAM2 binding inhibitor potency, dose response, biochemical, fluorescence polarization, FITC-PAM2 peptide (AID 602259); assay type: functional; settings: read-out: IC50_Mean
T3 sequence (P11940 whole entry): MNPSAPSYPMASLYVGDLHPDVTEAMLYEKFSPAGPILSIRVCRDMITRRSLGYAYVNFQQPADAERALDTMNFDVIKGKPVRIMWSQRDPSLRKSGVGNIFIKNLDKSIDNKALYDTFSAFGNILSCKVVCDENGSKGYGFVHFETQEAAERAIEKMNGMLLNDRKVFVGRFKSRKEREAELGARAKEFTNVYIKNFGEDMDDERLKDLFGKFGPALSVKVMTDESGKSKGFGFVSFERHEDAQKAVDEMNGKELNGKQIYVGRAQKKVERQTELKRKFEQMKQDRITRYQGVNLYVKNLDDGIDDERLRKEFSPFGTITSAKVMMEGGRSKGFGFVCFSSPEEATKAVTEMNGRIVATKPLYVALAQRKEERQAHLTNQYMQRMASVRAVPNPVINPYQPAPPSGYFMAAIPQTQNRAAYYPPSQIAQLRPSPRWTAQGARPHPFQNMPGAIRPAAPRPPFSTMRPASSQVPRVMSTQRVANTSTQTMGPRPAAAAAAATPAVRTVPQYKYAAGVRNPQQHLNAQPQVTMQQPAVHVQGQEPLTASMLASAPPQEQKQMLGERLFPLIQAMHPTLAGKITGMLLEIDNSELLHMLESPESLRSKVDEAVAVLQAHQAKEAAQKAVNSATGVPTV

Saccharomyces cerevisiae = experiment: NALP1 inhibitor project selectivity study, Caspase-1/ASC signal blockade IC50 in S. cerevisiae (AID 488863); assay type: functional, organism-based
[18] = molecular target: T3, Polyadenylate-binding protein 1; experiment: PABP1 MLLE–PAM2 interaction inhibitors, dose response, miRNA deadenylation inhibitor project, biochemical, fluorescence polarization, Cy5-PAM2 peptide, secondary (AID 602260); assay type: functional; settings: read-out: IC50_Mean
[19] = molecular target: NACHT, LRR and PYD domains-containing protein 1 (Homo sapiens, UniProt Q9C000); experiment: NALP1 inhibitors in yeast, dose response, luminescent (AID 488860); assay type: functional
Chain of NACHT, LRR and PYD domains-containing protein 1 (Q9C000 1-1212 limits assumed): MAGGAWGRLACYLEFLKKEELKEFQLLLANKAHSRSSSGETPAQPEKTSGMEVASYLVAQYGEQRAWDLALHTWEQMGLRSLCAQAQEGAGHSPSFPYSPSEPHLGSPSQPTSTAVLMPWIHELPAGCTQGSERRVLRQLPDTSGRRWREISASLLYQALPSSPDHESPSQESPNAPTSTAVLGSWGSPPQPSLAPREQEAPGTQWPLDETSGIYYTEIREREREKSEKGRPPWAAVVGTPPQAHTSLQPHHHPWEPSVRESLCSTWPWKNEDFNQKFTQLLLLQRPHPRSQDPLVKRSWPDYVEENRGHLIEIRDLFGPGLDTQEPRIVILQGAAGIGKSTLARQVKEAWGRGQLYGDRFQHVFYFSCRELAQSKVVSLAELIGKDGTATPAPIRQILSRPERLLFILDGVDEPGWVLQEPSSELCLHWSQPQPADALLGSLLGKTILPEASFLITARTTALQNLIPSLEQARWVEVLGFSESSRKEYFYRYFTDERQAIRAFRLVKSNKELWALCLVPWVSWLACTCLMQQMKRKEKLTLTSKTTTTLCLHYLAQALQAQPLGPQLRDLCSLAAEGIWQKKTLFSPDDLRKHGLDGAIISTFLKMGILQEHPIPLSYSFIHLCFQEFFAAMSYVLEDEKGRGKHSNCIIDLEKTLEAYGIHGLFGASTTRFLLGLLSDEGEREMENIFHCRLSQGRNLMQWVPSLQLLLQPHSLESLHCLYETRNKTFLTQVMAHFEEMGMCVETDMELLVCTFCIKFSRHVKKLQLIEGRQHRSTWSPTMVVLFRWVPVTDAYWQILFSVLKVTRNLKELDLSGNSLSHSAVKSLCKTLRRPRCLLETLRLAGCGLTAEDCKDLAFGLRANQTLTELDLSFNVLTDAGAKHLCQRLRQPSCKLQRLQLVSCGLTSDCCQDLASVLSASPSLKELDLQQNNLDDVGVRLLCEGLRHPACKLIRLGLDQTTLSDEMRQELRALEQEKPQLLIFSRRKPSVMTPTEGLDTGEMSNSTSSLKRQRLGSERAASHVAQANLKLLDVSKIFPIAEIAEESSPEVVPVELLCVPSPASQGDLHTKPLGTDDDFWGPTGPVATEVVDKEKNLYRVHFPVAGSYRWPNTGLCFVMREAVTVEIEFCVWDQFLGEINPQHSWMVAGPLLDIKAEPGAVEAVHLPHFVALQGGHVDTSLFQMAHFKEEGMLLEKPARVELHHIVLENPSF
Chain of NACHT, LRR and PYD domains-containing protein 1 (Q9C000 1213-1473 limits assumed): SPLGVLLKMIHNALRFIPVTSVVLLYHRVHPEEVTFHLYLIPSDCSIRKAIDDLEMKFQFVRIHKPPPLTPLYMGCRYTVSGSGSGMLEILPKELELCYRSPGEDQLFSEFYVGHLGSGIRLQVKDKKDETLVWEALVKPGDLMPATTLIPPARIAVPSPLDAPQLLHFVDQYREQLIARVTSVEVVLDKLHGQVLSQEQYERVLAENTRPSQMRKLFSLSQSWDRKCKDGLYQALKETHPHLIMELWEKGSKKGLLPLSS

## Cc1cc(C)cc(C(=O)N2CC(=O)Nc3ccccc32)c1
BJ [1]
  EC50: 11.5 µM (inconclusive)
[2]
  EC50: 0.817 µM (active)
[3]
  EC50: 1.09 µM (active)
BJ [4]
  EC50: 3.38 µM (active)
[5]
  EC50: > 12 µM (inconclusive)
J774.A1
  IC50: 0.161 µM (active)
[6]
  EC50: < 0.1 µM (active)
[7]
  EC50: < 0.1 µM (active)
BJ [8]
  EC50: 1.24 µM (inconclusive)
[9]
  AC50: > 30 µM (inactive)
cells
  EC50: 0.858 µM (active)
[10]
  IC50: > 80 µM (inactive)
[11]
  EC50: 0.921 µM (active)

## CCN(CC)C(=O)c1ccc2c(c1)C1C=CCC1C(C(=O)O)N2 (centres undefined)
[12]
  IC50: > 100 µM (not active)
[13]
  EC50: 6.32 µM (active)
[14]
  IC50: > 100 µM (not active)
Genome polyprotein
  IC50: 86.7 µM (active)
[15]
  IC50: > 100 µM (not active)
[16]
  EC50: 11.2 µM (active)
ORF 73
  AC50: 166 µM (active)

## Cc1ccc(N2C(=O)CC(Sc3ccccc3C(=O)O)C2=O)cc1 (centres undefined)
[17]
  IC50: > 66 µM (inactive)
Saccharomyces cerevisiae
  IC50: 20.6 µM (active)
[18]
  IC50: > 66 µM (inactive)
[19]
  IC50: 34.4 µM (active)
